Experimental data from ChEMBL document CHEMBL1138551, “Antimicrobial studies of some novel quinazolinones fused with [1,2,4]-triazole, [1,2,4]-triazine and [1,2,4,5]-tetrazine rings” (2009).
Converted amounts (≈) assume the structure as drawn.

Key:
Format in all cases: functional
Escherichia coli = test: Antibacterial activity against Escherichia coli after 24 hrs by disk diffusion method
Pseudomonas aeruginosa = test: Antibacterial activity against Pseudomonas aeruginosa after 24 hrs by disk diffusion method
Streptococcus pneumoniae = test: Antibacterial activity against Streptococcus pneumoniae after 24 hrs by disk diffusion method
Bacillus subtilis = test: Antibacterial activity against Bacillus subtilis after 24 hrs by disk diffusion method
Candida albicans = test: Antifungal activity against Candida albicans after 26 hrs by serial plate dilution method
Aspergillus fumigatus = test: Antifungal activity against Aspergillus fumigatus after 26 hrs by serial plate dilution method
Aspergillus flavus = test: Antifungal activity against Aspergillus flavus after 26 hrs by serial plate dilution method
Aspergillus niger = test: Antifungal activity against Aspergillus niger after 26 hrs by serial plate dilution method

| SMILES | MIC (Escherichia coli) [µg/mL] | MIC (Pseudomonas aeruginosa) [µg/mL] | MIC (Streptococcus pneumoniae) [µg/mL] | MIC (Bacillus subtilis) [µg/mL] | MIC (Candida albicans) [µg/mL] | MIC (Aspergillus fumigatus) [µg/mL] | MIC (Aspergillus flavus) [µg/mL] | MIC (Aspergillus niger) [µg/mL] |
| --- | --- | --- | --- | --- | --- | --- | --- | --- |
| COc1ccc(-n2c(=O)c3ccccc3n3c(-c4ccccc4C)nnc23)cc1 | 6.25 (≈ 16.3 µM) | 3.12 (≈ 8.16 µM) | 25 (≈ 65.4 µM) | 12.5 (≈ 32.7 µM) | 12.5 (≈ 32.7 µM) | 6.25 (≈ 16.3 µM) | 25 (≈ 65.4 µM) | 6.25 (≈ 16.3 µM) |
| COc1ccc(-n2c(=O)c3ccccc3n3c(-c4ccccc4)nnc23)cc1 | 12.5 (≈ 33.9 µM) | 6.25 (≈ 17 µM) | 6.25 (≈ 17 µM) | 12.5 (≈ 33.9 µM) | 6.25 (≈ 17 µM) | 12.5 (≈ 33.9 µM) | 25 (≈ 67.9 µM) | 3.12 (≈ 8.47 µM) |
| Cc1ccc(-n2c(=O)c3ccccc3n3c(-c4ccccc4)nnc23)cc1 | 25 (≈ 70.9 µM) | 25 (≈ 70.9 µM) | 50 (≈ 142 µM) | 50 (≈ 142 µM) | > 50 | 25 (≈ 70.9 µM) | 50 (≈ 142 µM) | 50 (≈ 142 µM) |
| O=c1c2ccccc2n2c(-c3ccccc3)nnc2n1-c1ccc(Cl)cc1 | 6.25 (≈ 16.8 µM) | 12.5 (≈ 33.5 µM) | 12.5 (≈ 33.5 µM) | 6.25 (≈ 16.8 µM) | 12.5 (≈ 33.5 µM) | 6.25 (≈ 16.8 µM) | 12.5 (≈ 33.5 µM) | 25 (≈ 67.1 µM) |
| O=c1c2ccccc2n2c(-c3ccccc3)nnc2n1-c1ccccc1 | 50 (≈ 148 µM) | > 50 | 50 (≈ 148 µM) | 25 (≈ 73.9 µM) | 25 (≈ 73.9 µM) | > 50 | > 50 | 25 (≈ 73.9 µM) |
| Cc1ccc(N2C(=O)c3ccccc3N3C2=NNC(=S)N3c2ccccc2)cc1 | 25 (≈ 62.6 µM) | 25 (≈ 62.6 µM) | > 50 | 25 (≈ 62.6 µM) | 25 (≈ 62.6 µM) | 12.5 (≈ 31.3 µM) | 12.5 (≈ 31.3 µM) | 25 (≈ 62.6 µM) |
| Cc1ccc(-n2c(=O)c3ccccc3n3c4nc5ccccc5c-4nnc23)cc1 | 25 (≈ 66.2 µM) | > 50 | 25 (≈ 66.2 µM) | 25 (≈ 66.2 µM) | 25 (≈ 66.2 µM) | 12.5 (≈ 33.1 µM) | 25 (≈ 66.2 µM) | 50 (≈ 132 µM) |
| COc1ccc(-n2c(=O)c3ccccc3n3c4nc5ccccc5c-4nnc23)cc1 | 12.5 (≈ 31.8 µM) | 12.5 (≈ 31.8 µM) | 12.5 (≈ 31.8 µM) | 6.25 (≈ 15.9 µM) | 6.25 (≈ 15.9 µM) | 6.25 (≈ 15.9 µM) | 3.12 (≈ 7.93 µM) | 12.5 (≈ 31.8 µM) |
| O=C1c2ccccc2N2C(=NNC(=S)N2c2ccccc2)N1c1ccccc1 | > 50 | 50 (≈ 130 µM) | 25 (≈ 64.9 µM) | > 50 | 25 (≈ 64.9 µM) | > 50 | > 50 | 25 (≈ 64.9 µM) |
| COc1ccc(N2C(=S)NN=C3N(c4ccccc4)C(=O)c4ccccc4N32)cc1 | 6.25 (≈ 15 µM) | 3.12 (≈ 7.51 µM) | 25 (≈ 60.2 µM) | 3.12 (≈ 7.51 µM) | 6.25 (≈ 15 µM) | 12.5 (≈ 30.1 µM) | 25 (≈ 60.2 µM) | 3.12 (≈ 7.51 µM) |
| Cc1ccccc1-c1nnc2n(-c3ccccc3)c(=O)c3ccccc3n12 | 25 (≈ 70.9 µM) | 50 (≈ 142 µM) | > 50 | > 50 | 50 (≈ 142 µM) | 25 (≈ 70.9 µM) | 25 (≈ 70.9 µM) | > 50 |
| Cc1ccccc1-c1nnc2n(-c3ccc(Cl)cc3)c(=O)c3ccccc3n12 | 12.5 (≈ 32.3 µM) | 25 (≈ 64.6 µM) | 25 (≈ 64.6 µM) | 12.5 (≈ 32.3 µM) | 6.25 (≈ 16.2 µM) | 12.5 (≈ 32.3 µM) | 3.12 (≈ 8.07 µM) | 12.5 (≈ 32.3 µM) |
| Cc1ccc(-n2c(=O)c3ccccc3n3c(-c4ccccc4Cl)nnc23)cc1 | 12.5 (≈ 32.3 µM) | 6.25 (≈ 16.2 µM) | 12.5 (≈ 32.3 µM) | 25 (≈ 64.6 µM) | 12.5 (≈ 32.3 µM) | 25 (≈ 64.6 µM) | 50 (≈ 129 µM) | 6.25 (≈ 16.2 µM) |
| Cc1ccc(-n2c(=O)c3ccccc3n3c(-c4ccccc4C)nnc23)cc1 | 25 (≈ 68.2 µM) | > 50 | 25 (≈ 68.2 µM) | > 50 | 25 (≈ 68.2 µM) | 12.5 (≈ 34.1 µM) | 50 (≈ 136 µM) | 12.5 (≈ 34.1 µM) |
| O=c1c2ccccc2n2c(-c3ccccc3Cl)nnc2n1-c1ccccc1 | 12.5 (≈ 33.5 µM) | 6.25 (≈ 16.8 µM) | 25 (≈ 67.1 µM) | 50 (≈ 134 µM) | 25 (≈ 67.1 µM) | 50 (≈ 134 µM) | 12.5 (≈ 33.5 µM) | 6.25 (≈ 16.8 µM) |
| COc1ccc(-n2c(=O)c3ccccc3n3c(-c4ccccc4Cl)nnc23)cc1 | 3.12 (≈ 7.74 µM) | 1.56 (≈ 3.87 µM) | 6.25 (≈ 15.5 µM) | 3.12 (≈ 7.74 µM) | 6.25 (≈ 15.5 µM) | 3.12 (≈ 7.74 µM) | 3.12 (≈ 7.74 µM) | 1.56 (≈ 3.87 µM) |
| Cc1ccc(N2C(=S)NN=C3N(c4ccccc4)C(=O)c4ccccc4N32)cc1 | 50 (≈ 125 µM) | 50 (≈ 125 µM) | 25 (≈ 62.6 µM) | 50 (≈ 125 µM) | > 50 | 25 (≈ 62.6 µM) | 12.5 (≈ 31.3 µM) | 25 (≈ 62.6 µM) |
| O=c1c2ccccc2n2c3nc4ccccc4c-3nnc2n1-c1ccccc1 | 50 (≈ 138 µM) | 25 (≈ 68.8 µM) | > 50 | 50 (≈ 138 µM) | > 50 | 25 (≈ 68.8 µM) | 25 (≈ 68.8 µM) | > 50 |
| O=c1c2ccccc2n2c(-c3ccccc3Cl)nnc2n1-c1ccc(Cl)cc1 | 1.56 (≈ 3.83 µM) | 3.12 (≈ 7.66 µM) | 3.12 (≈ 7.66 µM) | 1.56 (≈ 3.83 µM) | 1.56 (≈ 3.83 µM) | 3.12 (≈ 7.66 µM) | 6.25 (≈ 15.3 µM) | 1.56 (≈ 3.83 µM) |
| O=c1c2ccccc2n2c3nc4ccccc4c-3nnc2n1-c1ccc(Cl)cc1 | 3.12 (≈ 7.84 µM) | 3.12 (≈ 7.84 µM) | 1.56 (≈ 3.92 µM) | 6.25 (≈ 15.7 µM) | 3.12 (≈ 7.84 µM) | 6.25 (≈ 15.7 µM) | 3.12 (≈ 7.84 µM) | 1.56 (≈ 3.92 µM) |
| Cc1ccc(N2C(=O)c3ccccc3N3C2=NNC(=S)N3c2ccc(C)cc2)cc1 | 25 (≈ 60.5 µM) | 50 (≈ 121 µM) | 50 (≈ 121 µM) | 25 (≈ 60.5 µM) | 25 (≈ 60.5 µM) | 50 (≈ 121 µM) | 12.5 (≈ 30.2 µM) | 25 (≈ 60.5 µM) |
| O=C(O)c1cn(C2CC2)c2cc(N3CCNCC3)c(F)cc2c1=O [CIPROFLOXACIN] | – | 3.12 (≈ 9.42 µM) | 6.25 (≈ 18.9 µM) | 1.56 (≈ 4.71 µM) | – | – | – | – |
| OC(Cn1cncn1)(Cn1cncn1)c1ccc(F)cc1F [FLUCONAZOLE] | – | – | – | – | 1.56 (≈ 5.09 µM) | 6.25 (≈ 20.4 µM) | 3.12 (≈ 10.2 µM) | 1.56 (≈ 5.09 µM) |
